Columns and labels:
Test in all cases: KINOMEscan competition binding
Conditions in all cases: compound 10.0 µM
PIM1 (human) = PIM1 (human) (UniProt P11309)
DAPK2 (human) = DAPK2 (human) (UniProt Q9UIK4)
MYLK (human) = MYLK (human) (UniProt Q15746)
CDK7 (human) = CDK7 (human) (UniProt P50613)
[1] = system: PIK3CA (human), P42336 [E545K]
MAPK15 (human) = MAPK15 (human) (UniProt Q8TD08)
CLK2 (human) = CLK2 (human) (UniProt P49760)
CSNK2A1 (human) = CSNK2A1 (human) (UniProt P68400)
AAK1 (human) = AAK1 (human) (UniProt Q2M2I8)
RIOK3 (human) = RIOK3 (human) (UniProt O14730)
HIPK1 (human) = HIPK1 (human) (UniProt Q86Z02)
CAMKK2 (human) = CAMKK2 (human) (UniProt Q96RR4)
MYLK4 (human) = MYLK4 (human) (UniProt Q86YV6)
DDR1 (human) = DDR1 (human) (UniProt Q08345)
CSNK1D (human) = CSNK1D (human) (UniProt P48730)
NEK6 (human) = NEK6 (human) (UniProt Q9HC98)
CSNK1E (human) = CSNK1E (human) (UniProt P49674)
GSK3A (human) = GSK3A (human) (UniProt P49840)
RPS6KA1 KD2 (human) = RPS6KA1 KD2 (human) (UniProt Q15418)
DMPK (human) = DMPK (human) (UniProt Q09013)
SLK (human) = SLK (human) (UniProt Q9H2G2)
MKNK1 (human) = MKNK1 (human) (UniProt Q9BUB5)
STK10 (human) = STK10 (human) (UniProt O94804)
STK33 (human) = STK33 (human) (UniProt Q9BYT3)
[2] = system: EGFR (human), P00533 [A750P; 747-749 del]
[3] = system: EGFR (human), P00533 [G719S]
IKBKB (human) = IKBKB (human) (UniProt O14920)

Sequence of SLK (human) (Q9H2G2 whole entry, looked up): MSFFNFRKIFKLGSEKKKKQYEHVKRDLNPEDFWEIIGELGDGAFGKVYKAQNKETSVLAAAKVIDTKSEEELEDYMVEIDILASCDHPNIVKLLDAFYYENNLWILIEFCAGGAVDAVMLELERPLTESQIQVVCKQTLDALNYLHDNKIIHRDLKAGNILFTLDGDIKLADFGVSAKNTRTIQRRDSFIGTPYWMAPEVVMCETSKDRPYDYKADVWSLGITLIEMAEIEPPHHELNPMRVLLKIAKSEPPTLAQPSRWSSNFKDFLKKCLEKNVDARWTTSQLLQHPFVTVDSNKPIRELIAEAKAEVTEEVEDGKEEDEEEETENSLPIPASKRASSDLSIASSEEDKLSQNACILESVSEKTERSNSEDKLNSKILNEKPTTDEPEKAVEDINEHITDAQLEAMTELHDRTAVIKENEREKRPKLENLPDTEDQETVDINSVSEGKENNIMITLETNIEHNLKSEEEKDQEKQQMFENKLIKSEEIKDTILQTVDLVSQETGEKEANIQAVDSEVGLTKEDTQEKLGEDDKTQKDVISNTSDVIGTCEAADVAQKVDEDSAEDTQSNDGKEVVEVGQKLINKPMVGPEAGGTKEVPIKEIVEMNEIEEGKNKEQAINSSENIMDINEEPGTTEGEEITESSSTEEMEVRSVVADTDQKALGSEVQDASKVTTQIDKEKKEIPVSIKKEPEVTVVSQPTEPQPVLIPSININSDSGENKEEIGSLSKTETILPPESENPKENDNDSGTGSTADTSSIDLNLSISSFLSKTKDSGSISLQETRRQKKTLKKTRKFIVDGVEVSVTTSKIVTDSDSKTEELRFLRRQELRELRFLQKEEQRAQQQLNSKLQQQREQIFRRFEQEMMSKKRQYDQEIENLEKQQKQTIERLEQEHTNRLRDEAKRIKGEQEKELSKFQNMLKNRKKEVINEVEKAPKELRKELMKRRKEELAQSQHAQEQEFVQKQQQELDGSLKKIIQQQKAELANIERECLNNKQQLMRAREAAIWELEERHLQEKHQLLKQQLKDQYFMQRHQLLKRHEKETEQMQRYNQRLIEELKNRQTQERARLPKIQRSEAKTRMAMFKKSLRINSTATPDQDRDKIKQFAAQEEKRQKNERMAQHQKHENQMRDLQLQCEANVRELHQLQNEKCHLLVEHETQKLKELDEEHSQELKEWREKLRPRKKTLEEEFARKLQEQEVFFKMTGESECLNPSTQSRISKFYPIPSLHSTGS
Sequence of CSNK1D (human) (P48730 whole entry, looked up): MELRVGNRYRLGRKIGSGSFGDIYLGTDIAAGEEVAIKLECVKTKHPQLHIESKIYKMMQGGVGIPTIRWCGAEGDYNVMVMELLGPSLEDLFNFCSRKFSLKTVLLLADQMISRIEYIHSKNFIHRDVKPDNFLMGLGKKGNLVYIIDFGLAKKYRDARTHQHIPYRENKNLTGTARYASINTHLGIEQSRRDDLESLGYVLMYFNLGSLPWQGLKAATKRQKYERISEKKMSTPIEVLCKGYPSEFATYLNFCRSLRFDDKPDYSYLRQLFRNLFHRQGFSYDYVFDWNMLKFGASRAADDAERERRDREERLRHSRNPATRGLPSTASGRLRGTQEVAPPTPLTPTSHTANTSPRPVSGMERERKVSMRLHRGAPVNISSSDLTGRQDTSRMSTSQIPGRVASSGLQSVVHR
Sequence of CSNK1E (human) (P49674 whole entry, looked up): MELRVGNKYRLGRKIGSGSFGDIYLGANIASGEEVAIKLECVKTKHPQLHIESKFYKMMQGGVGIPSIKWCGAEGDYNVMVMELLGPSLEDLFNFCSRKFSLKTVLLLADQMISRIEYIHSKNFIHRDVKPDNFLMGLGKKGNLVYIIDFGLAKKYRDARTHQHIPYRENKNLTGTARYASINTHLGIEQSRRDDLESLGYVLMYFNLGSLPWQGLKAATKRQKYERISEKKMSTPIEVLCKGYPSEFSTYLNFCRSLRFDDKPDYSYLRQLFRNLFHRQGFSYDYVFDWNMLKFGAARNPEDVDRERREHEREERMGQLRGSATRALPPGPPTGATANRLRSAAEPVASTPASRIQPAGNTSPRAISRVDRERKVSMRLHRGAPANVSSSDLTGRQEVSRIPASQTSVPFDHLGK
Sequence of RIOK3 (human) (O14730 whole entry, looked up): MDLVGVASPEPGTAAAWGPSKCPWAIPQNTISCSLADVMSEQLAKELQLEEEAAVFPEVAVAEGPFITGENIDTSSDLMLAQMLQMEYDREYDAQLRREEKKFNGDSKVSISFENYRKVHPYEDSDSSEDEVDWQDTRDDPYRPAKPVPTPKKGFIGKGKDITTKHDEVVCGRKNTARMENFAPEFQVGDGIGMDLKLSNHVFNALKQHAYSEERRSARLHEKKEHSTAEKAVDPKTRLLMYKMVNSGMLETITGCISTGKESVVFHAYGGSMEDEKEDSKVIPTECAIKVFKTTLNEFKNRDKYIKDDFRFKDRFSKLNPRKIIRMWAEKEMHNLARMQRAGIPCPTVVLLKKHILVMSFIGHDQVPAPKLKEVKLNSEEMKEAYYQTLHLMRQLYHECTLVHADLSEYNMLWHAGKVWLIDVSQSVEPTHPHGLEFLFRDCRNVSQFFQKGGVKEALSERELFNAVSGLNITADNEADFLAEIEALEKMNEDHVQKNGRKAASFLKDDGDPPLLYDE
Sequence of STK33 (human) (Q9BYT3 whole entry, looked up): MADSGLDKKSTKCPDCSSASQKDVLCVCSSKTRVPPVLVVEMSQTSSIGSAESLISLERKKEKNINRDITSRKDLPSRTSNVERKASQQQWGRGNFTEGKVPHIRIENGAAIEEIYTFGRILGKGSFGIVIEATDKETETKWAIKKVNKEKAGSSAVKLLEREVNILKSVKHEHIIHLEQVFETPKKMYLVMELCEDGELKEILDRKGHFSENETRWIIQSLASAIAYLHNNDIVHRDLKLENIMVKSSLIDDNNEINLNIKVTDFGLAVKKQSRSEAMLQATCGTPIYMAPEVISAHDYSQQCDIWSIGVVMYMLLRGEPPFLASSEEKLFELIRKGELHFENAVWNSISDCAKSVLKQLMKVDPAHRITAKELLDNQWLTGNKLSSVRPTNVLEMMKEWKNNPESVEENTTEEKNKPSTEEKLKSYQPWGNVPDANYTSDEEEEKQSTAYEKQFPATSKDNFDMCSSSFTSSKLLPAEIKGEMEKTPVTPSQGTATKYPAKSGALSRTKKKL
Sequence of CAMKK2 (human) (Q96RR4 whole entry, looked up): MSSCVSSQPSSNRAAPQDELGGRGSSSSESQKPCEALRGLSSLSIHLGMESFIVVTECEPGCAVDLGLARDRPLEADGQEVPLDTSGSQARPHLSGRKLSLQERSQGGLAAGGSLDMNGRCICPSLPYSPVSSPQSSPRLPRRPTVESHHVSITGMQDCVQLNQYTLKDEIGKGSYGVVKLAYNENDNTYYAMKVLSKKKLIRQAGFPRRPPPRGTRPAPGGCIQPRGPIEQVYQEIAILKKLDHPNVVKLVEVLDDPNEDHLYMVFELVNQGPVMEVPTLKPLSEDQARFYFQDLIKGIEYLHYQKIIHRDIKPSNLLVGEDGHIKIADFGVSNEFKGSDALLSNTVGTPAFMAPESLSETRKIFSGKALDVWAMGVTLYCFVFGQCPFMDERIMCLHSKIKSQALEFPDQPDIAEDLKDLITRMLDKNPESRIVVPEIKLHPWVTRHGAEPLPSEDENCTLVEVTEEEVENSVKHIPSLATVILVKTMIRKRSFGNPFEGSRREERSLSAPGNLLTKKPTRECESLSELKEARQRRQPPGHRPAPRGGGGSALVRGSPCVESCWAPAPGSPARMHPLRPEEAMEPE
Sequence of CLK2 (human) (P49760 whole entry, looked up): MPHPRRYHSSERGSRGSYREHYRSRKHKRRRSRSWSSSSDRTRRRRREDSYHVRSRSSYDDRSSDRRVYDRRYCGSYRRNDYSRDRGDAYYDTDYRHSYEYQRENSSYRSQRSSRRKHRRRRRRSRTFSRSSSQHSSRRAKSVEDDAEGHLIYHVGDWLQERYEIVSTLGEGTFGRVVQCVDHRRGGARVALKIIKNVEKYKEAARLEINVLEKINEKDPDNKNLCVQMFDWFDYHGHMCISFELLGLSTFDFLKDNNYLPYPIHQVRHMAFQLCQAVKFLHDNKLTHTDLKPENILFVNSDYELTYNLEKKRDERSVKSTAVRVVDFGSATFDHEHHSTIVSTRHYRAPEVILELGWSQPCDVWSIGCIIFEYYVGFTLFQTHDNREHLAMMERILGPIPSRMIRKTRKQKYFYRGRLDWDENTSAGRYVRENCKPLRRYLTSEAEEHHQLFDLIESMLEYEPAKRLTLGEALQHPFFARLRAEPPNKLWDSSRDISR
Sequence of CSNK2A1 (human) (P68400 whole entry, looked up): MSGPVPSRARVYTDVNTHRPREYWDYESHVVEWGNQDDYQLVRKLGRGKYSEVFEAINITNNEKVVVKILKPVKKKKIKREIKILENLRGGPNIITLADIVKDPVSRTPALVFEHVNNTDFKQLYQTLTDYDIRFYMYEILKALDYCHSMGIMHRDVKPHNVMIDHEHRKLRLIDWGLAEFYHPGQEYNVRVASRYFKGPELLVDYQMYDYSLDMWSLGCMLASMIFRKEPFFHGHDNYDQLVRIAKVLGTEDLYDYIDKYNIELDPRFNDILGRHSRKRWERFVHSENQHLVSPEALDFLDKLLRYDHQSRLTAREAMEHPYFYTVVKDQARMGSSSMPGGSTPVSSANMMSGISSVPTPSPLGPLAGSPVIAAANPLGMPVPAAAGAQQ
Sequence of MYLK4 (human) (Q86YV6 whole entry, looked up): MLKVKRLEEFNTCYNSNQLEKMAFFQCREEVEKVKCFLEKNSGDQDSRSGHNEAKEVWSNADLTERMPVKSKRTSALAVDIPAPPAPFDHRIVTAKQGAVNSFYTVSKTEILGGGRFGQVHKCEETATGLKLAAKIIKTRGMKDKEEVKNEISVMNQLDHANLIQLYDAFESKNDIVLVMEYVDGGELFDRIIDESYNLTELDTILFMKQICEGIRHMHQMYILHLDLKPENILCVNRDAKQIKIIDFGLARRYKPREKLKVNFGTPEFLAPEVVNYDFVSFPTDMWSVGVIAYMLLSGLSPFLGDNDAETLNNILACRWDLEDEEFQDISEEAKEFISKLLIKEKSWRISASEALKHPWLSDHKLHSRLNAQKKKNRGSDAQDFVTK

Row | SMILES | kinase still bound, per cent of control (PIM1 (human)) [%] | kinase still bound, per cent of control (DAPK2 (human)) [%] | kinase still bound, per cent of control (MYLK (human)) [%] | kinase still bound, per cent of control (CDK7 (human)) [%] | kinase still bound, per cent of control (CLK2 (human)) [%] | kinase still bound, per cent of control (CSNK2A1 (human)) [%] | kinase still bound, per cent of control (AAK1 (human)) [%] | kinase still bound, per cent of control (RIOK3 (human)) [%] | kinase still bound, per cent of control (HIPK1 (human)) [%] | kinase still bound, per cent of control (CAMKK2 (human)) [%] | kinase still bound, per cent of control (MYLK4 (human)) [%] | kinase still bound, per cent of control (CSNK1D (human)) [%] | kinase still bound, per cent of control (CSNK1E (human)) [%] | kinase still bound, per cent of control (DMPK (human)) [%] | kinase still bound, per cent of control (MKNK1 (human)) [%] | kinase still bound, per cent of control (MAPK15 (human)) [%] | also measured
1 | N=C1NC(=O)/C(=C/c2ccc(-c3csc4ccccc34)o2)S1 | 8.1 | 14 |  |  | 15 | 12 |  |  | 0.6 |  | 32 | 34 | 22 |  |  | 7.6 | kinase still bound, per cent of control (DDR1 (human)): 33%; kinase still bound, per cent of control (NEK6 (human)): 25%; kinase still bound, per cent of control (GSK3A (human)): 0%; kinase still bound, per cent of control (RPS6KA1 KD2 (human)): 14%
2 | CS(=O)(=O)Nc1ccc(-c2cc(/C=C3\SC(=N)NC3=O)c[nH]c2=O)cc1 | 9.5 | 2.2 |  | 26 | 5.2 | 4.8 | 7.6 | 6 | 0.5 | 31 |  |  |  | 6.4 |  | 0.1 | 
3 | N=C1NC(=O)/C(=C/c2c[nH]c(=O)c(-c3ccc(N4CCNCC4)nc3)c2)S1 | 4 | 2.3 |  | 8.8 | 2.8 |  | 12 | 9.4 | 0.15 |  |  |  |  | 18 |  | 4 | kinase still bound, per cent of control (STK33 (human)): 7.2%
4 | CS(=O)(=O)Nc1ccc(-c2cncc(/C=C3\SC(=N)NC3=O)c2)cc1 |  | 14 |  |  |  |  | 32 | 19 | 19 |  | 29 | 1.4 | 2.8 | 22 | 0.55 | 13 | kinase still bound, per cent of control (SLK (human)): 2.8%; kinase still bound, per cent of control (STK33 (human)): 18%; kinase still bound, per cent of control [2]: 17%; kinase still bound, per cent of control [1]: 22%; kinase still bound, per cent of control (STK10 (human)): 26%; kinase still bound, per cent of control (GSK3A (human)): 13%; kinase still bound, per cent of control [3]: 24%
5 | N=C1NC(=O)/C(=C/c2ccc(-c3ccc(C(N)=O)cc3O)o2)S1 | 3 | 24 |  | 1 | 19 | 5.8 | 15 |  | 0.35 | 33 | 6 |  |  | 14 | 13 | 0.1 | kinase still bound, per cent of control (GSK3A (human)): 17%
6 | Nc1cccc(-c2cc(/C=C3\SC(=O)NC3=O)c[nH]c2=O)c1 | 4.8 | 0.2 | 25 | 8.8 | 0 | 17 | 1.8 | 8.6 | 0.2 | 5.8 | 2.8 | 23 | 26 | 27 |  | 0.55 | kinase still bound, per cent of control (STK33 (human)): 19%; kinase still bound, per cent of control [2]: 9.4%; kinase still bound, per cent of control [3]: 21%

The next lines start with results.

Row | kinase still bound, per cent of control (PIM1 (human)) [%] | kinase still bound, per cent of control (DAPK2 (human)) [%] | kinase still bound, per cent of control (MYLK (human)) [%] | kinase still bound, per cent of control (CDK7 (human)) [%] | kinase still bound, per cent of control (CLK2 (human)) [%] | kinase still bound, per cent of control (CSNK2A1 (human)) [%] | kinase still bound, per cent of control (AAK1 (human)) [%] | kinase still bound, per cent of control (RIOK3 (human)) [%] | kinase still bound, per cent of control (HIPK1 (human)) [%] | kinase still bound, per cent of control (CAMKK2 (human)) [%] | kinase still bound, per cent of control (MYLK4 (human)) [%] | kinase still bound, per cent of control (CSNK1D (human)) [%] | kinase still bound, per cent of control (CSNK1E (human)) [%] | kinase still bound, per cent of control (DMPK (human)) [%] | kinase still bound, per cent of control (MKNK1 (human)) [%] | SMILES | kinase still bound, per cent of control (MAPK15 (human)) [%] | also measured
7 | 1.4 | 3.2 | 14 | 1.4 | 0.9 | 9.9 | 8.2 | 20 | 1.4 | 18 | 5.9 |  |  |  |  | N=C1NC(=O)/C(=C/c2ccc(-c3ccccc3O)o2)S1 | 0.3 | kinase still bound, per cent of control [1]: 21%
8 | 2.8 | 3.2 | 19 |  |  |  | 13 |  |  | 29 |  |  |  |  | 13 | CS(=O)(=O)Nc1ccc(-c2ncc(/C=C3\SC(=N)NC3=O)s2)cc1 |  | kinase still bound, per cent of control (SLK (human)): 1.4%; kinase still bound, per cent of control (STK10 (human)): 6.8%
9 | 6.8 | 8.6 | 23 | 3.7 | 1 | 25 |  |  |  | 33 | 30 |  | 21 |  |  | CN1C(=O)[C@H]2CCC[C@H]2N(C2CCCC2)c2nc(Nc3ccc(C(N)=O)cc3)ncc21 | 18 | kinase still bound, per cent of control (SLK (human)): 3.4%; kinase still bound, per cent of control (RPS6KA1 KD2 (human)): 7.6%
10 | 3.8 | 4.1 |  | 0.95 | 2.8 |  | 16 |  | 0.15 | 22 | 8.1 | 24 |  |  | 15 | N=C1NC(=O)/C(=C/c2ccc(-c3ccc(F)cc3O)o2)S1 | 0.1 | kinase still bound, per cent of control [2]: 29%; kinase still bound, per cent of control [1]: 24%
11 | 13 | 3.6 | 34 | 30 | 9.5 | 1.6 | 6.2 | 7.4 | 2.2 | 31 |  |  |  |  |  | CSC1=NC(=O)/C(=C/c2c[nH]c(=O)c(-c3ccc(NS(C)(=O)=O)cc3)c2)S1 | 5 | kinase still bound, per cent of control (IKBKB (human)): 25%; kinase still bound, per cent of control (RPS6KA1 KD2 (human)): 32%

Reference: the kinase profiling compilation of Christmann-Franck et al. (2016)
